US20020006958A1, “Substituted aminosalicylic acid amides with fungicidal effect and intermediate products for production thereof” (priority 1997, published 2002)

test: HPLC logP determination; assay type: physicochemical; conditions: stated in the preparation examples

SMILES	chromatographic logP
O=CNc1cccc(C(=O)Nc2ccc(Oc3ncnc(Oc4ccccc4)c3F)cc2)c1O [Example 1, N-[4-(5-fluoro-6-phenoxy-pyrimidin-4-yloxy)-phenyl]-3-formyl-amino-2-hydroxy-benzamide]	3.31
O=C(Nc1ccc(Oc2ncnc(Oc3ccccc3)c2F)cc1)c1cccc([N+](=O)[O-])c1OCc1ccccc1 [Example V-1, 2-benzyloxy-N-[4-(5-fluoro-6-phenoxy-pyrimidin-4-yloxy)-phenyl]-3-nitro-benzamide]	4.56
Nc1ccc(Oc2cc(Oc3ccccc3Cl)ncn2)cc1 [VII-a-1, 4-(4-aminophenoxy)-6-(2-chlorophenoxy)-pyrimidine]	1.96
Nc1ccc(Oc2cc(Cl)ncn2)cc1 [XI-1, 4-(4-aminophenoxy)-6-chloro-pyrimidine]	0.65
